Results reported in ChEMBL document CHEMBL1201862, “PubChem BioAssay data set” (2004).
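1) Cells in 96-well plates. 2) Compound, 48 h, 5 concentrations. 3) Linear interpolation between surrounding doses. 4) Unreached endpoint = highest concentration. Here, GI50 denotes the concentration required for 50% inhibition of growth.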 Activity calls are given as the source filed them. No stated cut-off is given here; in the data, active = GI50 up to about 1.1 µM and inactive = higher.

Legend:
Test in all cases: NCI tumour cell line growth inhibition, 48 h
[1] = test system: OVCAR-5
[2] = test system: Malme-3M
[3] = test system: RPMI-8226
[4] = test system: SNB-78
[5] = test system: SR
[6] = test system: SW-620
[7] = test system: SK-MEL-28
[8] = test system: IGROV-1
[9] = test system: HOP-92
[10] = test system: HCT-116
[11] = test system: K562
[12] = test system: HOP-62
[13] = test system: M14
[14] = test system: U-251
[15] = test system: A498
[16] = test system: COLO 205
[17] = test system: PC-3
[18] = test system: MDA-MB-231
[19] = test system: MCF7

| SMILES | GI50 [1] | GI50 [2] | GI50 [3] | GI50 [4] | GI50 [5] | GI50 [6] | GI50 [7] | GI50 [8] | GI50 [9] | GI50 [10] | GI50 [11] | GI50 [12] | GI50 [13] | GI50 [14] | GI50 [15] | GI50 [16] | GI50 [17] | GI50 [18] | GI50 [19] |
| --- | --- | --- | --- | --- | --- | --- | --- | --- | --- | --- | --- | --- | --- | --- | --- | --- | --- | --- | --- |
| O=[N+]([O-])c1cc(I)cc(/C=N/NS(=O)(=O)c2ccc(Cl)cc2)c1O | 25 µM (inactive) | 22 µM (inactive) | 25.4 µM (inactive) | 27.5 µM (inactive) | 21.4 µM (inactive) | 27.6 µM (inactive) | 27.7 µM (inactive) | 20.3 µM (inactive) | 20.5 µM (inactive) | 21.2 µM (inactive) | 20 µM (inactive) | 25.6 µM (inactive) | 25.2 µM (inactive) | 18.7 µM (inactive) | 22.9 µM (inactive) | 18.9 µM (inactive) | – | – | – |
| C/C(=N\NC(N)=O)c1sc(-c2nc(C)c(/C(C)=N/NC(N)=O)s2)nc1C | > 100 µM (inactive) | > 100 µM (inactive) | > 100 µM (inactive) | > 100 µM (inactive) | 22.6 µM (inactive) | – | > 100 µM (inactive) | > 100 µM (inactive) | > 100 µM (inactive) | > 10 µM (inactive) | 53.8 µM (inactive) | > 100 µM (inactive) | > 100 µM (inactive) | 99.3 µM (inactive) | > 100 µM (inactive) | 53.6 µM (inactive) | – | – | – |
| Cc1nc2c(n1-c1ccc(Br)cc1)C(=O)c1ccccc1C2=O | > 100 µM (inactive) | 9.95 µM (inactive) | 1.43 µM (inactive) | 14.6 µM (inactive) | 1.07 µM (active) | 7.74 µM (inactive) | 12.9 µM (inactive) | 21.2 µM (inactive) | 27.2 µM (inactive) | 1.63 µM (inactive) | 1.33 µM (inactive) | 18.3 µM (inactive) | 17.7 µM (inactive) | 3.54 µM (inactive) | > 49.8 µM (inactive) | 4.38 µM (inactive) | 1.26 µM (inactive) | 0.406 µM (active) | 3.62 µM (inactive) |
| COc1ccccc1/C=C(\C#N)C(=O)c1ccccc1 | > 100 µM (inactive) | > 100 µM (inactive) | > 100 µM (inactive) | > 100 µM (inactive) | > 100 µM (inactive) | > 100 µM (inactive) | > 100 µM (inactive) | > 100 µM (inactive) | > 100 µM (inactive) | > 100 µM (inactive) | > 100 µM (inactive) | > 100 µM (inactive) | > 100 µM (inactive) | > 100 µM (inactive) | > 100 µM (inactive) | > 100 µM (inactive) | – | – | – |
| c1nc2cscc2c2cscc12 | > 100 µM (inactive) | > 100 µM (inactive) | > 100 µM (inactive) | > 100 µM (inactive) | > 100 µM (inactive) | > 100 µM (inactive) | > 100 µM (inactive) | > 100 µM (inactive) | 14.7 µM (inactive) | > 100 µM (inactive) | > 100 µM (inactive) | > 100 µM (inactive) | > 100 µM (inactive) | > 100 µM (inactive) | > 100 µM (inactive) | – | – | – | – |
| CC(=O)Oc1ccc2c(=O)c(C(C)=O)coc2c1 | > 100 µM (inactive) | – | > 100 µM (inactive) | 80 µM (inactive) | > 100 µM (inactive) | > 100 µM (inactive) | > 100 µM (inactive) | > 100 µM (inactive) | 79.6 µM (inactive) | > 100 µM (inactive) | > 100 µM (inactive) | > 100 µM (inactive) | > 100 µM (inactive) | > 100 µM (inactive) | 58.1 µM (inactive) | > 100 µM (inactive) | – | – | – |
| CCC(O)C1Cc2c(C)cc3c(c2O1)C(=O)c1ccccc1C3=O (stereo unspecified) | 72.3 µM (inactive) | 34.6 µM (inactive) | 27.9 µM (inactive) | 33.2 µM (inactive) | 33.5 µM (inactive) | 52 µM (inactive) | 49.2 µM (inactive) | 31.5 µM (inactive) | 29.4 µM (inactive) | 40.6 µM (inactive) | 29.8 µM (inactive) | 35.9 µM (inactive) | 40.1 µM (inactive) | 26.2 µM (inactive) | 18 µM (inactive) | 16.1 µM (inactive) | – | – | – |
| NCCn1cnc2nc(NC(=O)c3ccccc3)[nH]c(=O)c21 | > 100 µM (inactive) | > 100 µM (inactive) | > 100 µM (inactive) | > 100 µM (inactive) | > 100 µM (inactive) | > 100 µM (inactive) | > 100 µM (inactive) | > 100 µM (inactive) | > 100 µM (inactive) | > 100 µM (inactive) | > 100 µM (inactive) | > 100 µM (inactive) | – | > 100 µM (inactive) | > 100 µM (inactive) | > 100 µM (inactive) | – | – | – |
| N/N=C(/Cc1nc2ccc(C(=O)c3ccccc3)cc2nc1O)C(=O)Nc1ccc([N+](=O)[O-])cc1[N+](=O)[O-] | > 10 µM (inactive) | > 100 µM (inactive) | > 10 µM (inactive) | > 10 µM (inactive) | > 10 µM (inactive) | > 100 µM (inactive) | > 10 µM (inactive) | > 10 µM (inactive) | > 10 µM (inactive) | > 10 µM (inactive) | > 10 µM (inactive) | – | > 10 µM (inactive) | > 10 µM (inactive) | > 10 µM (inactive) | > 10 µM (inactive) | – | – | – |
| O=c1[nH]n2c(=O)cc[nH]c2c1-c1nnns1 | > 100 µM (inactive) | > 100 µM (inactive) | > 100 µM (inactive) | > 100 µM (inactive) | > 100 µM (inactive) | > 100 µM (inactive) | > 100 µM (inactive) | > 100 µM (inactive) | > 100 µM (inactive) | > 100 µM (inactive) | > 100 µM (inactive) | > 100 µM (inactive) | > 100 µM (inactive) | > 100 µM (inactive) | > 100 µM (inactive) | > 100 µM (inactive) | – | – | – |
| COC(=O)NC(=O)c1cn(C2CCCCC2)c(=O)[nH]c1=O | > 100 µM (inactive) | > 100 µM (inactive) | > 100 µM (inactive) | > 100 µM (inactive) | > 100 µM (inactive) | > 100 µM (inactive) | > 100 µM (inactive) | > 100 µM (inactive) | > 100 µM (inactive) | > 100 µM (inactive) | > 100 µM (inactive) | > 100 µM (inactive) | > 100 µM (inactive) | > 100 µM (inactive) | > 100 µM (inactive) | > 100 µM (inactive) | – | – | – |
| O=C(OCCOCBr)c1ccccc1 | > 100 µM (inactive) | > 100 µM (inactive) | > 100 µM (inactive) | > 100 µM (inactive) | > 100 µM (inactive) | > 100 µM (inactive) | > 100 µM (inactive) | > 100 µM (inactive) | > 100 µM (inactive) | > 100 µM (inactive) | > 100 µM (inactive) | > 100 µM (inactive) | > 100 µM (inactive) | > 100 µM (inactive) | > 100 µM (inactive) | > 100 µM (inactive) | – | – | – |
| CC(=O)O[C@]1(C)CCC2C(C)C(=O)OC2C2C(C)[C@@H](O)CC21 (stereo partly specified) | 29.8 µM (inactive) | > 100 µM (inactive) | 20.5 µM (inactive) | 74 µM (inactive) | 3.56 µM (inactive) | 15.8 µM (inactive) | 34 µM (inactive) | 40.7 µM (inactive) | 26.4 µM (inactive) | 27.2 µM (inactive) | 17.1 µM (inactive) | 19.3 µM (inactive) | 20.8 µM (inactive) | 30.1 µM (inactive) | 19.8 µM (inactive) | 20 µM (inactive) | – | – | – |
